For 2 molecules, log2FC results are on record in publication PMC12668308, “A Novel Antimalarial Agent that Inhibits Protein Synthesis in Plasmodium falciparum” (Angewandte Chemie (International Ed. in English), 2025).

What all share (test): iSPP profiling, P. falciparum lysate
Type in all cases: binding, Plasmodium falciparum

In experiment [1] the test system is Uncharacterized protein (W7JQ86). On the procedure:
(§1) P. falciparum NF54 lysates were extracted as described in ^[26^] . The parasite asynchronous culture was extracted once 3-5% parasitemia was reached. Saponin lysis was done as described in 2.2.10. Once the parasite pellet was obtained, 2.5 volumes of ice-cold lysis buffer (50 mM Tris/HCl pH 7.5 (Avantor), 5% glycerol (Sigma-Aldrich), 150 mM NaCl (Carl Roth), 1.5 mM MgCl2 (Sigma-Aldrich), 1 mM DTT (Carl Roth), 0.8% IGEPAL CA-630 (Sigma-Aldrich), 1X Halt Protease and Phosphatase Inhibitor-Cocktails EDTA-free (Thermo Fisher Scientific)) was added to the parasite pellet. The lysate solution was subjected to three cycles of flash freeze-thaw with liquid nitrogen and ddH2O at RT. The lysates were centrifuged at 20,000 g for 20 minutes at 4 °C. The soluble protein fraction (supernatant) was collected and the protein content was quantified using the BCA assay (Pierce™ BCA Protein Assay Kit, Thermo Fisher Scientific). The lysate was stored at -80 °C until further use.
(§2) The P. falciparum lysate was thawed on ice and diluted to 0.8 mg/mL. The lysate was aliquoted, and each aliquot was incubated with either a vehicle control (DMSO), 34 (dissolved in DMSO), or varying concentrations of 31 (dissolved in DMSO) at 0.01 µM, 0.1 µM, 10 µM, 50 µM, and 100 µM. Subsequently, the samples were incubated at room temperature for 30 minutes using a rotating mixer. After distribution into a 96-well plate, the samples were treated with increasing concentrations of A.E.A. (v/v) ranging from 14% to 28% (14, 16, 18, 20, 22, 24, 26, and 28%). Following a 20-minute incubation at 37°C with shaking at 750 rpm, the samples were centrifuged at 4400 g for 35 minutes to remove precipitated proteins. The soluble fractions were then pooled in equal volumes into a single sample using the Bravo Automated Liquid Handling Platform. The pooled samples were subsequently prepared for LC-MS/MS analysis.
(§3) The raw LFQ-DIA intensity values of biological replicates across all conditions were normalized to the median abundance using Excel. The normalized values were then log2 transformed in Perseus (v2.0.10.0).^[58^] Missing values were imputed from a normal distribution (width 0.3, down shift 1.5), and p-values were obtained using a two-sample t-test over replicates with a permutation-based false discovery rate correction (FDR 0.05). Volcano plots were generated in RStudio using the EnhancedVolcano package (v. 1.20.0), ^[59^] plotting proteins by statistical significance (y-axis: –Log10 p-value) versus the magnitude of change (x-axis: log2 fold change of protein intensities for each compound condition relative to the vehicle control). The heatmap was generated in Perseus (v2.0.10.0). Dose-dependent curves were generated using normalized protein intensity values, expressed as a ratio to the vehicle control. Plots were created in GraphPad Prism (v8.3.0) using a nonlinear regression model.

For experiment [2], the system named is RRM domain-containing protein (W7KAG3). The following applies: 100 µM compound 34. On the procedure: as §1, §2, §3
Experiment [3] deals with Uncharacterized protein (W7KMZ2). To be noted: 100 µM compound 34. Here is the method: as §1, §2, §3
The subject of experiment [4] is DNA repair and recombination protein RAD54 (W7K6H8). The following applies: 100 µM compound 34. On the procedure: as §1, §2, §3
For experiment [5], the system named is PCI domain-containing protein (W7JUC8). The following applies: 100 µM compound 34. Here is the method:
as §1, §2, §3

Experiment [6] relates to SPATR (W7KAV2). The following applies: 100 µM compound 34. On the procedure: as §1, §2, §3
Experiment [7] deals with WD repeat-containing protein 82 (W7K1H5). To be noted: 100 µM compound 34. On the procedure:
as §1, §2, §3

For experiment [8], the system named is Pre-mRNA branch site protein p14 (Fragment) (W7JRR7). The following applies: 100 µM compound 34. Here is the method: as §1, §2, §3
In experiment [9] the test system is Sugar phosphate phosphatase (W7K268). To be noted: 100 µM compound 34. Here is the method:
as §1, §2, §3

For experiment [10], the system named is Protein RFT1 homolog (W7JM37). The following applies: 100 µM compound 34. Here is the method: as §1, §2, §3
Experiment [11] deals with Plasmodium RESA N-terminal domain-containing protein (W7KFM4). To be noted: 100 µM compound 34. On the procedure:
as §1, §2, §3

For experiment [12], the system named is Dihydrolipoyl dehydrogenase (W7JVD0). The following applies: 100 µM compound 34. Here is the method:
as §1, §2, §3

The test system of experiment [13] is Uncharacterized protein (W7KBT1). To be noted: 100 µM compound 34. On the procedure: as §1, §2, §3
Experiment [14] has as its system Uncharacterized protein (W7JZL0). To be noted: 100 µM compound 34. Here is the method:
as §1, §2, §3

The subject of experiment [15] is Uncharacterized protein (W7KDE4). To be noted: 100 µM compound 34. Here is the method:
as §1, §2, §3

For experiment [16], the system named is Uncharacterized protein (W7JSC9). The following applies: 100 µM compound 34. Here is the method: as §1, §2, §3
Experiment [17] has as its system Stevor (W7K9U2). The following applies: 100 µM compound 34. Here is the method: as §1, §2, §3
The test system of experiment [18] is Ubiquitin-like protein nedd8-like (W7JPX7). To be noted: 100 µM compound 34. On the procedure:
as §1, §2, §3

Experiment [19] deals with Antigen UB05 (W7JRY1). The following applies: 100 µM compound 34. On the procedure:
as §1, §2, §3

The test system of experiment [20] is Erythrocyte membrane protein 1 (W7JQ66;W7K7Z8;W7KA08;W7KI56;W7KJ57). To be noted: 100 µM compound 34. Here is the method:
as §1, §2, §3

In experiment [21] the test system is Dual specificity protein phosphatase (W7KAW5). To be noted: 100 µM compound 34. On the procedure:
as §1, §2, §3

Experiment [22] has as its system Pre-mRNA-splicing factor BUD31 (W7K941). To be noted: 100 µM compound 34. On the procedure: as §1, §2, §3
The subject of experiment [23] is 2-C-methyl-D-erythritol 4-phosphate cytidylyltransferase (W7KNE8). The following applies: 100 µM compound 34. Here is the method: as §1, §2, §3
Experiment [24] relates to Uncharacterized protein (W7KAK7). To be noted: 100 µM compound 34. On the procedure: as §1, §2, §3
The test system of experiment [25] is Uncharacterized protein (W7KFE6). To be noted: 100 µM compound 34. On the procedure: as §1, §2, §3
For experiment [26], the system named is Small nuclear ribonucleoprotein Sm D1 (W7K576). The following applies: 100 µM compound 34. Here is the method:
as §1, §2, §3

On to `CN1CCN(Cc2ccc(O)c(NC(=O)c3cccc(Oc4cc(C(F)(F)F)ccn4)c3)c2)CC1` [Compound 31, N-(2-hydroxy-5-((4-methylpiperazin-1-yl)methyl)phenyl)-3-((4-(trifluoromethyl)pyridin-2-yl)oxy)benzamide], for which the log2FC in [1] (10 µM) is on record as 0.49; in [1] (50 µM), 0.58; in experiment [1] (100 µM), 0.37; in [1] (10^-2 µM) it was 0.40; in experiment [1] (10^-3 µM), 0.28.
On to `O=C(Nc1cc(CN2CCOCC2)ccc1F)c1cccc(Oc2cc(C(F)(F)F)ccn2)c1` [Compound 34, N-(2-Fluoro-5-(morpholinomethyl)phenyl)-3-((4-(trifluoromethyl)pyridin-2-yl)oxy)benzamide], for which the log2FC in experiment [2] is recorded as 0.4449; in experiment [3] it was 0.3762; in [4] it was -0.7564; in [5], -0.3885; in experiment [6], 0.3835; in experiment [7], -0.6516. Also, the log2FC was 0.3601 in experiment [8]; -0.3813 in experiment [9]; -0.6689 in experiment [10]; 0.3623 in [11]; 0.3119 in [12]; 0.318 in experiment [13]. Further, the log2FC in experiment [14] is given as -1.173; in [15], 0.5097; in [16] it was 0.457; in [17], 0.3642; in [18], 0.3658; in experiment [19], 0.5651. Besides, the log2FC in experiment [20] is 0.3804; in [21] it was -0.5678; in experiment [22] it was 0.5199; in experiment [23], -1.336; in experiment [24] it was -0.4093; in experiment [25] it was 0.3535. This molecule also came in with a log2FC in experiment [26] of 0.401.
